Results published in the NIST ThermoML archive (doi:10.1021/je025655p).

Tests used:
[1] = xn = mol fraction of the nth substance listed; conditions: 101.3 kPa, Liquid; for viscosity: Capillary tube (Ostwald / Ubbelohde) method; for speed of sound: Sing-around technique in a fixed-path interferometer; for mass density: Vibrating tube method
[2] = excess molar enthalpy (molar enthalpy of mixing); xn = mol fraction of the nth substance listed; conditions: 101.3 kPa, Liquid, Flow calorimetry

OCC(F)(F)F [2,2,2-trifluoroethanol] + C1CCOCC1
Conditions | excess molar enthalpy [kcal/mol] | mass density [kg/m3] | speed of sound [m/s] | viscosity [mPa·s]
[1], 283.15 K, x2 = 0.0508 | – | – | – | 2.521
[1], 283.15 K, x2 = 0.1011 | – | – | – | 2.265
[1], 283.15 K, x2 = 0.1039 | – | 1328.18 | 903.5 | –
[1], 283.15 K, x2 = 0.2025 | – | – | – | 1.834
[1], 283.15 K, x2 = 0.2071 | – | 1259.32 | 942.2 | –
[1], 283.15 K, x2 = 0.3024 | – | – | – | 1.546
[1], 283.15 K, x2 = 0.3067 | – | – | 985.6 | –
[1], 283.15 K, x2 = 0.3073 | – | 1199.39 | – | –
[1], 283.15 K, x2 = 0.404 | – | – | – | 1.348
[1], 283.15 K, x2 = 0.4123 | – | – | 1034 | –
[1], 283.15 K, x2 = 0.4127 | – | 1142.29 | – | –
[1], 283.15 K, x2 = 0.5017 | – | 1097.77 | 1076.2 | –
[1], 283.15 K, x2 = 0.5027 | – | – | – | 1.22
[1], 283.15 K, x2 = 0.6011 | – | 1051.7 | 1124.9 | –
[1], 283.15 K, x2 = 0.6069 | – | – | – | 1.123
[1], 283.15 K, x2 = 0.7013 | – | – | – | 1.064
[1], 283.15 K, x2 = 0.7183 | – | 1001.3 | 1184.3 | –
[1], 283.15 K, x2 = 0.8016 | – | – | – | 1.026
[1], 283.15 K, x2 = 0.8206 | – | 960.36 | 1237.7 | –
[1], 283.15 K, x2 = 0.8955 | – | 931.9 | 1278.1 | –
[1], 283.15 K, x2 = 0.9064 | – | – | – | 1.01
[1], 298.15 K, x2 = 0.0508 | – | – | – | 1.68
[1], 298.15 K, x2 = 0.1011 | – | – | – | 1.557
[1], 298.15 K, x2 = 0.1023 | – | 1305.58 | 850.5 | –
[1], 298.15 K, x2 = 0.2025 | – | – | – | 1.33
[1], 298.15 K, x2 = 0.2029 | – | 1239.41 | 886.4 | –
[1], 298.15 K, x2 = 0.3024 | – | – | – | 1.159
[1], 298.15 K, x2 = 0.3203 | – | 1170.85 | 933.6 | –
[1], 298.15 K, x2 = 0.404 | – | – | – | 1.034
[1], 298.15 K, x2 = 0.412 | – | 1122.5 | 972.6 | –
[1], 298.15 K, x2 = 0.5027 | – | – | – | 0.9509
[1], 298.15 K, x2 = 0.5192 | – | 1070.38 | – | –
[1], 298.15 K, x2 = 0.5208 | – | – | 1021 | –
[1], 298.15 K, x2 = 0.6069 | – | – | – | 0.8855
[1], 298.15 K, x2 = 0.6171 | – | 1026.55 | 1065.4 | –
[1], 298.15 K, x2 = 0.7013 | – | – | – | 0.845
[1], 298.15 K, x2 = 0.7342 | – | 977.81 | 1121 | –
[1], 298.15 K, x2 = 0.793 | – | 954.59 | – | –
[1], 298.15 K, x2 = 0.7996 | – | – | 1152.3 | –
[1], 298.15 K, x2 = 0.8016 | – | – | – | 0.8183
[1], 298.15 K, x2 = 0.8967 | – | 915.73 | 1201.6 | –
[1], 298.15 K, x2 = 0.9064 | – | – | – | 0.8047
[1], 313.15 K, x2 = 0.0508 | – | – | – | 1.171
[1], 313.15 K, x2 = 0.0995 | – | – | 813.9 | –
[1], 313.15 K, x2 = 0.1011 | – | – | – | 1.112
[1], 313.15 K, x2 = 0.1028 | – | 1280.8 | – | –
[1], 313.15 K, x2 = 0.2 | – | 1217.96 | 845.8 | –
[1], 313.15 K, x2 = 0.2025 | – | – | – | 0.9911
[1], 313.15 K, x2 = 0.3024 | – | – | – | 0.891
[1], 313.15 K, x2 = 0.3049 | – | 1157.77 | 885 | –
[1], 313.15 K, x2 = 0.404 | – | – | – | 0.8127
[1], 313.15 K, x2 = 0.4108 | – | 1102.63 | – | –
[1], 313.15 K, x2 = 0.4111 | – | – | 927.4 | –
[1], 313.15 K, x2 = 0.5027 | – | – | – | 0.757
[1], 313.15 K, x2 = 0.504 | – | 1058.19 | 967.4 | –
[1], 313.15 K, x2 = 0.5961 | – | 1017.26 | – | –
[1], 313.15 K, x2 = 0.6032 | – | – | 1010.4 | –
[1], 313.15 K, x2 = 0.6069 | – | – | – | 0.7128
[1], 313.15 K, x2 = 0.6986 | – | 974.97 | – | –
[1], 313.15 K, x2 = 0.7013 | – | – | – | 0.6832
[1], 313.15 K, x2 = 0.733 | – | – | 1070.3 | –
[1], 313.15 K, x2 = 0.8016 | – | – | – | 0.6642
[1], 313.15 K, x2 = 0.8321 | – | 923.77 | 1116.2 | –
[1], 313.15 K, x2 = 0.8986 | – | 899.6 | – | –
[1], 313.15 K, x2 = 0.8988 | – | – | 1149.4 | –
[1], 313.15 K, x2 = 0.9064 | – | – | – | 0.6543
[2], 283.15 K, x2 = 0.065 | -0.102 | – | – | –
[2], 283.15 K, x2 = 0.127 | -0.178 | – | – | –
[2], 283.15 K, x2 = 0.248 | -0.283 | – | – | –
[2], 283.15 K, x2 = 0.36 | -0.342 | – | – | –
[2], 283.15 K, x2 = 0.466 | -0.362 | – | – | –
[2], 283.15 K, x2 = 0.57 | -0.35 | – | – | –
[2], 283.15 K, x2 = 0.664 | -0.303 | – | – | –
[2], 283.15 K, x2 = 0.755 | -0.243 | – | – | –
[2], 283.15 K, x2 = 0.839 | -0.168 | – | – | –
[2], 283.15 K, x2 = 0.921 | -0.0829 | – | – | –
[2], 283.15 K, x2 = 0.962 | -0.037 | – | – | –
[2], 298.15 K, x2 = 0.065 | -0.113 | – | – | –
[2], 298.15 K, x2 = 0.127 | -0.204 | – | – | –
[2], 298.15 K, x2 = 0.248 | -0.322 | – | – | –
[2], 298.15 K, x2 = 0.36 | -0.384 | – | – | –
[2], 298.15 K, x2 = 0.466 | -0.404 | – | – | –
[2], 298.15 K, x2 = 0.57 | -0.387 | – | – | –
[2], 298.15 K, x2 = 0.664 | -0.339 | – | – | –
[2], 298.15 K, x2 = 0.755 | -0.268 | – | – | –
[2], 298.15 K, x2 = 0.839 | -0.184 | – | – | –
[2], 298.15 K, x2 = 0.921 | -0.0908 | – | – | –
[2], 298.15 K, x2 = 0.962 | -0.0428 | – | – | –
[2], 313.15 K, x2 = 0.065 | -0.114 | – | – | –
[2], 313.15 K, x2 = 0.127 | -0.215 | – | – | –
[2], 313.15 K, x2 = 0.248 | -0.348 | – | – | –
[2], 313.15 K, x2 = 0.36 | -0.421 | – | – | –
[2], 313.15 K, x2 = 0.466 | -0.444 | – | – | –
[2], 313.15 K, x2 = 0.57 | -0.427 | – | – | –
[2], 313.15 K, x2 = 0.664 | -0.374 | – | – | –
[2], 313.15 K, x2 = 0.755 | -0.297 | – | – | –
[2], 313.15 K, x2 = 0.839 | -0.203 | – | – | –
[2], 313.15 K, x2 = 0.921 | -0.0997 | – | – | –
[2], 313.15 K, x2 = 0.962 | -0.0466 | – | – | –
